In ChEMBL document CHEMBL3046781, “Resistance of Helicoverpa assulta (Guenée) (Lepidoptera: Noctuidae) to fenvalerate, phoxim and methomyl in China” (2009) one finds Ratio, LD90 and LD50 data, which are given here for three compounds.

What all share (type): functional
The test system of assay [1] is Helicoverpa assulta. The assay can be described thus: Resistance factor, ratio of LD50 for sixth-instar larvae of Helicoverpa assulta YN4 to LD50 for sixth-instar larvae of Helicoverpa assulta at 1.8 to 183360 mg/l.
Assay [2] concerns Helicoverpa assulta. The assay is described as follows: Insecticidal activity against sixth-instar larvae of Helicoverpa assulta GZ2 at 1.8 to 183360 mg/l after 48 hr by chi-squared analysis.
For assay [3], the system named is Helicoverpa assulta. The assay can be described thus: Resistance factor, ratio of LD50 for sixth-instar larvae of Helicoverpa assulta AH1 to LD50 for sixth-instar larvae of Helicoverpa assulta at 1.8 to 183360 mg/l.
The test system of assay [4] is Helicoverpa assulta. The assay is described as follows: Insecticidal activity against sixth-instar larvae of Helicoverpa assulta HB1 at 1.8 to 183360 mg/l after 48 hr by chi-squared analysis.
For assay [5], the system named is Helicoverpa assulta. The assay is described as follows: Resistance factor, ratio of LD50 for sixth-instar larvae of Helicoverpa assulta HB2 to LD50 for sixth-instar larvae of Helicoverpa assulta at 1.8 to 183360 mg/l.
In assay [6] the test system is Helicoverpa assulta. The assay can be described thus: Resistance factor, ratio of LD50 for sixth-instar larvae of Helicoverpa assulta YN7 to LD50 for sixth-instar larvae of Helicoverpa assulta at 1.8 to 183360 mg/l.
Assay [7] concerns Helicoverpa assulta. The assay can be described thus: Resistance factor, ratio of LD50 for sixth-instar larvae of Helicoverpa assulta GZ3 to LD50 for sixth-instar larvae of Helicoverpa assulta at 1.8 to 183360 mg/l.
The subject of assay [8] is Helicoverpa assulta. The assay is described as follows: Insecticidal activity against sixth-instar larvae of Helicoverpa assulta HN2 at 1.8 to 183360 mg/l after 48 hr by chi-squared analysis.
Assay [9] concerns Helicoverpa assulta. The assay is described as follows: Resistance factor, ratio of LD50 for sixth-instar larvae of Helicoverpa assulta SD2 to LD50 for sixth-instar larvae of Helicoverpa assulta at 1.8 to 183360 mg/l.
The test system of assay [10] is Helicoverpa assulta. The assay can be described thus: Insecticidal activity against sixth-instar larvae of Helicoverpa assulta SD2 at 1.8 to 183360 mg/l after 48 hr by chi-squared analysis.
Assay [11] relates to Helicoverpa assulta. The assay can be described thus: Resistance factor, ratio of LD50 for sixth-instar larvae of Helicoverpa assulta YN1 to LD50 for sixth-instar larvae of Helicoverpa assulta at 1.8 to 183360 mg/l.
Assay [12] has as its system Helicoverpa assulta. The assay is described as follows: Insecticidal activity against sixth-instar larvae of Helicoverpa assulta GZ3 at 1.8 to 183360 mg/l after 48 hr by chi-squared analysis.
Assay [13] relates to Helicoverpa assulta. The assay is described as follows: Resistance factor, ratio of LD50 for sixth-instar larvae of Helicoverpa assulta AH3 to LD50 for sixth-instar larvae of Helicoverpa assulta at 21 to 3390 mg/l.
Assay [14] deals with Helicoverpa assulta. The assay is described as follows: Resistance factor, ratio of LD50 for sixth-instar larvae of Helicoverpa assulta YN3 to LD50 for sixth-instar larvae of Helicoverpa assulta at 21 to 3390 mg/l.
The subject of assay [15] is Helicoverpa assulta. The assay is described as follows: Insecticidal activity against sixth-instar larvae of Helicoverpa assulta SD2 at 21 to 3390 mg/l after 48 hr by chi-squared analysis.
The test system of assay [16] is Helicoverpa assulta. The assay is described as follows: Resistance factor, ratio of LD50 for sixth-instar larvae of Helicoverpa assulta GZ3 to LD50 for sixth-instar larvae of Helicoverpa assulta at 21 to 3390 mg/l.
For assay [17], the system named is Helicoverpa assulta. The assay is described as follows: Insecticidal activity against sixth-instar larvae of Helicoverpa assulta GZ1 at 21 to 3390 mg/l after 48 hr by chi-squared analysis.
Assay [18] concerns Helicoverpa assulta. The assay is described as follows: Insecticidal activity against sixth-instar larvae of Helicoverpa assulta HN1 at 21 to 3390 mg/l after 48 hr by chi-squared analysis.
Assay [19] concerns Helicoverpa assulta. The assay can be described thus: Resistance factor, ratio of LD50 for sixth-instar larvae of Helicoverpa assulta HB2 to LD50 for sixth-instar larvae of Helicoverpa assulta at 21 to 3390 mg/l.
The subject of assay [20] is Helicoverpa assulta. The assay can be described thus: Resistance factor, ratio of LD50 for sixth-instar larvae of Helicoverpa assulta HB1 to LD50 for sixth-instar larvae of Helicoverpa assulta at 21 to 3390 mg/l.
In assay [21] the test system is Helicoverpa assulta. The assay can be described thus: Insecticidal activity against sixth-instar larvae of Helicoverpa assulta GZ5 at 21 to 3390 mg/l after 48 hr by chi-squared analysis.
For assay [22], the system named is Helicoverpa assulta. The assay can be described thus: Insecticidal activity against sixth-instar larvae of Helicoverpa assulta GZ2 at 21 to 3390 mg/l after 48 hr by chi-squared analysis.
In assay [23] the test system is Helicoverpa assulta. The assay is described as follows: Insecticidal activity against sixth-instar larvae of Helicoverpa assulta YN6 at 21 to 3390 mg/l after 48 hr by chi-squared analysis.
For assay [24], the system named is Helicoverpa assulta. The assay can be described thus: Insecticidal activity against sixth-instar larvae of Helicoverpa assulta HB2 at 21 to 3390 mg/l after 48 hr by chi-squared analysis.
Assay [25] deals with Helicoverpa assulta. The assay is described as follows: Resistance factor, ratio of LD50 for sixth-instar larvae of Helicoverpa assulta SD1 to LD50 for sixth-instar larvae of Helicoverpa assulta at 21 to 3390 mg/l.
Assay [26] concerns Helicoverpa assulta. The assay is described as follows: Resistance factor, ratio of LD50 for sixth-instar larvae of Helicoverpa assulta YN1 to LD50 for sixth-instar larvae of Helicoverpa assulta at 21 to 3390 mg/l.
Assay [27] relates to Helicoverpa assulta. The assay is described as follows: Resistance factor, ratio of LD50 for sixth-instar larvae of Helicoverpa assulta GZ4 to LD50 for sixth-instar larvae of Helicoverpa assulta at 21 to 3390 mg/l.
For assay [28], the system named is Helicoverpa assulta. The assay can be described thus: Resistance factor, ratio of LD50 for sixth-instar larvae of Helicoverpa assulta HN2 to LD50 for sixth-instar larvae of Helicoverpa assulta at 39 to 12630 mg/l.
Assay [29] concerns Helicoverpa assulta. The assay is described as follows: Resistance factor, ratio of LD50 for sixth-instar larvae of Helicoverpa assulta AH2 to LD50 for sixth-instar larvae of Helicoverpa assulta at 39 to 12630 mg/l.
Assay [30] concerns Helicoverpa assulta. The assay is described as follows: Insecticidal activity against sixth-instar larvae of Helicoverpa assulta GZ1 at 39 to 12630 mg/l after 48 hr by chi-squared analysis.
Assay [31] has as its system Helicoverpa assulta. The assay is described as follows: Resistance factor, ratio of LD50 for sixth-instar larvae of Helicoverpa assulta GZ2 to LD50 for sixth-instar larvae of Helicoverpa assulta at 39 to 12630 mg/l.
Assay [32] has as its system Helicoverpa assulta. The assay is described as follows: Resistance factor, ratio of LD50 for sixth-instar larvae of Helicoverpa assulta GZ1 to LD50 for sixth-instar larvae of Helicoverpa assulta at 39 to 12630 mg/l.
Assay [33] concerns Helicoverpa assulta. The assay can be described thus: Insecticidal activity against sixth-instar larvae of Helicoverpa assulta AH1 at 39 to 12630 mg/l after 48 hr by chi-squared analysis.
The subject of assay [34] is Helicoverpa assulta. The assay is described as follows: Insecticidal activity against sixth-instar larvae of Helicoverpa assulta YN3 at 39 to 12630 mg/l after 48 hr by chi-squared analysis.
For assay [35], the system named is Helicoverpa assulta. The assay is described as follows: Insecticidal activity against sixth-instar larvae of Helicoverpa assulta YN4 at 39 to 12630 mg/l after 48 hr by chi-squared analysis.

The term LD50 denotes the dose expected to kill half of the subjects tested. Lower therefore signals a more toxic substance.

On to `CC(C)C(C(=O)OC(C#N)c1cccc(Oc2ccccc2)c1)c1ccc(Cl)cc1` (stereo unspecified) [FENVALERATE], for which the Ratio worked out at 9231 in [1]; 2054 in [3]; 28.5 in assay [5]; 1537 in [6]; 824 in assay [7]; 12 in [9]. Further, in assay [11], the Ratio stood at 8412. Further, the LD90 came to 558 µg/g in assay [2]; 7.34 µg/g in assay [4]; 7.63 µg/g in [8]; 27.2 µg/g in assay [10]; 725 µg/g in assay [12]. For the same compound, the LD50 in [2] (Helicoverpa assulta, GZ2, 48 h) came to 169 mg/kg; in assay [4] (Helicoverpa assulta, HB1, 48 h), 0.944 mg/kg; in [8] (Helicoverpa assulta, HN2, 48 h), 1.17 mg/kg; in [10] (Helicoverpa assulta, SD2, 48 h), 1.94 mg/kg; in assay [12] (Helicoverpa assulta, GZ3, 48 h), 133 mg/kg.

In the case of `CNC(=O)ON=C(C)SC` [METHOMYL], the Ratio in assay [13] worked out at 12.7; in assay [14] it was 23.1; in [16], 14.4; in assay [19] it was 10.9; in assay [20], 8.45; in assay [25] it was 3.93. For the same compound, the values for the Ratio in [26] and in [27] were 31.6 and 11.5, respectively. The LD90 in [15] worked out at 41.8 µg/g; in [17], 131 µg/g; in assay [18], 34 µg/g; in assay [21], 64.6 µg/g; in assay [22], 52.6 µg/g; in assay [23] it was 66.2 µg/g. Also, in assay [24], the LD90 was found to be 108 µg/g. The LD50 in [15] (Helicoverpa assulta, SD2, 48 h) was found to be 8.92 mg/kg; in assay [17] (Helicoverpa assulta, GZ1, 48 h) it was 41.8 mg/kg; in assay [18] (Helicoverpa assulta, HN1, 48 h), 6.48 mg/kg; in assay [21] (Helicoverpa assulta, GZ5, 48 h), 21 mg/kg; in assay [22] (Helicoverpa assulta, GZ2, 48 h), 20.1 mg/kg; in assay [23] (Helicoverpa assulta, YN6, 48 h), 19.7 mg/kg. In [24] (Helicoverpa assulta, HB2, 48 h), this compound showed an LD50 of 15.8 mg/kg.

Take `CCOP(=S)(OCC)O/N=C(\C#N)c1ccccc1` [PHOXIM]: the Ratio worked out at 3.51 in assay [28], 7.13 in assay [29], 10.8 in [31] and 14.3 in assay [32]. In addition, the LD90 is 124 µg/g in assay [30], 819 µg/g in assay [33], 56.4 µg/g in assay [34] and 94 µg/g in assay [35]. In addition, the LD50 came out at 33.3 mg/kg in [30] (Helicoverpa assulta, GZ1, 48 h); 119 mg/kg in [33] (Helicoverpa assulta, AH1, 48 h); 29.2 mg/kg in [34] (Helicoverpa assulta, YN3, 48 h); 39.6 mg/kg in assay [35] (Helicoverpa assulta, YN4, 48 h).
